Reference: US20140242609A1, “Diagnosis and treatment of kidney stones, methods and compositions therefor” (Washington University, priority 2013, published 2014)

Legend:
claudin-14 protein = claudin-14 protein levels in freshly isolated TALH cells pooled from treated mouse kidneys (western blot); type: in vivo; details: for claudin-14 protein levels, change: 30 mg/kg BW−1 per day for 6 days, 24 hrs following the last treatment
Protocol: (§1) An immunomagnetic separation method was used to isolate the TAL cells from the mouse kidney (Hou et al., 2009). Antibodies against the TAL cell specific surface antigen, Tamm-Horsfall protein (THP), were coated onto the paramagnetic polystyrene beads (Dynabeads M-280; Dynal), allowing immunoprecipitation of the TAL cells from collagenase digested mouse kidneys. The isolated cells were plated in DMEM medium supplemented with 10% FBS, penicillin/streptomycin, and 1 mM sodium pyruvate for 16 hours, followed by immediate transfection with NFAT or antagomirs.
Because of the low abundance of claudin-14 proteins in the whole kidney, an immunomagnetic separation method was adapted to freshly isolate the TALH tubular cells from the kidneys of each treated mouse, pooled the TALH cells from all animals (N=5) within each treatment group and quantified claudin-14 protein levels by western blot. […] Claudin-14 proteins were immunostained in mouse kidneys to investigate changes in TJ localization.
as §1, with “TALH” for “TAL”, “kidney. (Gong Y,” for “kidney (Hou”, “al. 2012 and Gong Y, et al. 2013)” for “al., 2009).”, “protein,” for “protein (THP),”, “treatment.” for “transfection with NFAT or antagomirs.”
as §1, with “TALH” for “TAL”, “kidney. (Gong, Y.,” for “kidney (Hou”, “2012; Hou, J., et al., 2009)” for “2009).”, “(THP; a GPI-anchored protein that is exclusively expressed in the TALH and the early part of the DCT,) (Stricklett, P. K., et al., 2003; Bernascone, I., et al., 2010)” for “(THP),”, “NFAT.” for “NFAT or antagomirs.”
Changes in claudin-14 protein levels were captured as early as 2 hrs following a single oral dose of NPS2143 or cinacalcet (30 mg/kg BW^−1) treatment. Because of the low abundance of claudin-14 proteins in the whole kidney, the inventors adapted an immunomagnetic separation method to freshly isolate the TALH tubular cells from the kidneys of each treated mouse (described in Gong, Y., et al., 2012 and Hou, J., et al. 2009; see Methods), pooled the TALH cells from all animals (N=5) within each treatment group, isolated plasma membrane proteins and quantified claudin-14 protein levels by western blot. […] Although claudins were previously considered static molecules sequestered in the tight junction, several recent studies have found similarly rapid turnover rate of less than 60 min for claudins (see Discussion). Claudin-14 proteins were inummuostained in mouse kidneys to investigate changes in TJ localization.

pri-miR-9-1 = pri-miR-9-1 transcript levels in TALH of treated mouse kidneys (real-time PCR); type: in vivo; details: for changes in pri-miR-9-1 levels: by 8 hrs
Source text: (§2) Total RNA including microRNA was extracted using Trizol (Invitrogen). Cellular mRNA was reverse transcribed using the Superscript-III kit (Invitrogen), followed by real-time PCR amplification using SYBR Green PCR Master Mix (Bio-Rad) and Eppendorf Realplex2S system. The design of claudin-14 primers was described above. The design of pri-miRNA primers was according to Ma et al., (2010). Results were expressed as 2^−ΔCt values with ΔCT=Ctgene−Ctβ-actin.
(§3) To measure the transcriptional level for microRNA gene in vivo in the kidney, the inventors designed primers (see Methods; Table 2) to amplify the pri-miRNA molecule, the original transcript for microRNA gene that had not yet been subjected to any nuclear or cellular processing. Because both miR-9 and miR-374 had broader localization profiles along the nephron, the inventors isolated the TALH tubular cells for pri-miRNA analyses from the mouse kidney described elsewhere in this study. WT mice (strain: C57BL/6) were treated with NPS2143 or cinacalcet as described for claudin-14 analyses and assayed for pri-miRNA levels in isolated TALH cells at 2 hrs and 8 hrs respectively. […] NPS2143 and cinacalcet also profoundly regulated pri-miR-374. […] The expression levels of miR-9-1 and miR-374 genes were both inversely correlated with that of claudin-14 gene in the kidney, compatible with the silencing role of microRNA in regulating its target gene.
(§4) Total RNA including microRNA was extracted using Trizol (Invitrogen). Cellular mRNA was reverse transcribed using the Superscript-III kit (Invitrogen), followed by real-time PCR amplification using SYBR Green PCR Master Mix (Bio-Rad) and Eppendorf Realplex2S system. The design of claudin-14 primers was described before by Gong et al., 2012. The design of pri-miRNA primers and ChIP primers was according to Gong et al., 2013. Results were expressed as 2^−ΔCt values with ΔCT=Ctgene−Ctβ-actin.
as §4, with “by Gong. Y.,” for “by Gong”, “primers” for “primers and ChIP primers”, “to Ma. L.,” for “to Gong”, “al., 2010.” for “al., 2013.”

pri-miR-374 = pri-miR-374 transcript levels in TALH of treated mouse kidneys (real-time PCR); type: in vivo; details: for pri-miR-374 levels versus control: 8 hrs
Source text: as §2, §3, §4
as §4, with “by Gong. Y.,” for “by Gong”, “primers” for “primers and ChIP primers”, “to Ma. L.,” for “to Gong”, “al., 2010.” for “al., 2013.”

miR-374 promoter = assay: ChIP over miR-374 promoter in TALH cells of treated mice; type: in vivo, mouse; details: for H3K9 and H3K14 acetylation levels, miR-374 promoter region / fold enrichment of NFATc1 over miR-374 promoter region: 30 mg/kg BW−1, 2 hrs; for H3K9 and H3K14 acetylation levels, miR-374 promoter region: higher than vehicle level; for fold enrichment of NFATc1 over miR-374 promoter region: versus vehicle
Protocol: (§5) Freshly isolated TALH cells or primary TALH cell cultures were cross-linked in 1% paraformaldehyde (pH7.0) for 10 min at room temperature. The cross-linked cells were lysed following to instruction of MAGnify ChIP system (Invitrogen). Chromatin was sonicated into 500 bp fragments with Bioruptor UCD-200 (High power, 15 cycles of 30 seconds ON, 30 seconds OFF; Diagenode). Sheared chromatin was precipitated with antibody-bound Dynabeads (Invitrogen). Following reverse crosslink and DNA extraction, antibody-bound DNA was eluted and analyzed with real-time PCR. Two criteria for normalization were applied: fold enrichment over anti-IgG background signal and input control over chromatin input signal.
as §5, with “OFF,” for “OFF;”

[1] = cyclosporine-A pre-treated animals, 30 mg/kg BW−1, 2 hrs
[2] = TPTX mice, 30 mg/kg BW−1, 2 hrs

In the case of `O=C(CCCCCCC(=O)Nc1ccccc1)NO` [SAHA, Suberanilohydroxamic acid], the “CLDN14 protein levels, reduction” value (claudin-14 protein; 25 mg/kg BW−1, 4 hr) is reported as 60%, the “transcriptional levels of miR-9-1 gene (pri-miR-9-1), increase” value (pri-miR-9-1; 25 mg/kg BW−1, 4 hrs) is reported as 1.49 fold and the “transcriptional levels of miR-374 gene (pri-miR-374), increase” value (pri-miR-374; 25 mg/kg BW−1, 4 hrs) is reported as 1.85 fold. For the same compound, the “H3K9 and H3K14 acetylation, miR-374 promoter, increase” value (miR-374 promoter; 25 mg/kg BW−1, 4 hrs) was 2.45 fold and the “NFAT binding to miR-374 promoter” value (miR-374 promoter; 25 mg/kg BW−1, 4 hrs) was “not affected”.
With `CC(C)(Cc1ccc2ccccc2c1)NC[C@@H](O)COc1cccc(Cl)c1C#N` [NPS2143] the “claudin-14 protein levels, change” value (claudin-14 protein) was “Neither NPS2143 nor cinacalcet caused changes”, the “claudin-14 protein levels, percent of the vehicle treatment” value (claudin-14 protein; single oral dose 30 mg/kg BW−1, 2 hrs, densitometric scale) was 32% and the “changes in pri-miR-9-1 levels” value (pri-miR-9-1; 30 mg/kg BW−1) was “dissipated completely”. For the same compound, the “pri-miR-9-1 level, increase” value (pri-miR-9-1; TPTX mice, 30 mg/kg BW−1) was 19%, the “pri-miR-9-1 mRNA levels, change” value (pri-miR-9-1; [1]) was “failed to elicit any significant change” and the “pri-miR-9-1 transcript level, increase” value (pri-miR-9-1; single-dose 30 mg/kg BW−1, 2 hrs) was 7.65 fold. For the same compound, the “pri-miR-374, upregulation” value (pri-miR-374; 30 mg/kg BW−1, 2 hrs) was 2.91 fold, the “pri-miR-374 levels versus control” value (pri-miR-374; 30 mg/kg BW−1) was “not different from control” and the “pri-miR-374 level, change” value (pri-miR-374; TPTX mice, 30 mg/kg BW−1) was “failed to elicit a significant change”. The “pri-miR-374 mRNA levels, change” value (pri-miR-374; [1]) was “failed to elicit any significant change”, the “H3K9 and H3K14 acetylation levels, miR-374 promoter region” value (miR-374 promoter) was 1.93 fold and the “fold enrichment of NFATc1 over miR-374 promoter region” value (miR-374 promoter) was 1.51 fold.
With `C[C@@H](NCCCc1cccc(C(F)(F)F)c1)c1cccc2ccccc12` [cinacalcet] the “claudin-14 protein levels, change” value (claudin-14 protein) was “Neither NPS2143 nor cinacalcet caused changes”, the “claudin-14 protein levels, upregulation” value (claudin-14 protein; single oral dose 30 mg/kg BW−1, 2 hrs) was 2.98 fold and the “pri-miR-9-1 transcript level, decrease” value (pri-miR-9-1; 30 mg/kg BW−1, 2 hrs) was 88%. The “changes in pri-miR-9-1 levels” value (pri-miR-9-1; 30 mg/kg BW−1) was “dissipated completely”, the “pri-miR-9-1 level, reduction” value (pri-miR-9-1; [2]) was 55% and the “pri-miR-9-1 mRNA levels, decrease” value (pri-miR-9-1; [1]) was 34%. For the same compound, the “pri-miR-374, downregulation” value (pri-miR-374; 30 mg/kg BW−1, 2 hrs) was 71%, the “pri-miR-374 levels versus control” value (pri-miR-374; 30 mg/kg BW−1) was “not different from control” and the “pri-miR-374 level, reduction” value (pri-miR-374; [2]) was 53%. The “pri-miR-374 mRNA levels, decrease” value (pri-miR-374; [1]) was 39%, the “H3K9 and H3K14 acetylation levels, miR-374 promoter region” value (miR-374 promoter) was “not” and the “fold enrichment of NFATc1 over miR-374 promoter region” value (miR-374 promoter) was “without significant effect”.
